Results reported in patent publication US20040121316A1 (priority 2002, published 2004).
“And” between values parts separate entries of the source, which are not always exact repeats. Equal values may be shown once. Read-outs that look alike come from different tables or passages of the source.

Experiments:
[1] = system: wild-type HIV-1 strain IIIB; assay: microbe, parasite or virus in culture; type: cell-based; set-up: scale not given here
[2] = system: mutant HIV-1 I84V/L90M; assay: Resistance Evaluation, I84V/L90M fold change; type: cell-based; set-up: scale not given here
[3] = molecular target: T1, recombinant HIV-1 protease (Human immunodeficiency virus type 1 group M subtype B, UniProt P04585); assay: biochemical
T1 construct: Enzyme: recombinant HIV-1 protease expressed in E.Coli; purchased Bachem California, Inc. H-9040; host or cells: E. coli

[4] = Human immunodeficiency virus 1, IIIB
[5] = EC50 of mutant I84V/L90M relative to wild type, class symbols

Row | Structure (SMILES) | EC50 [1, 4] | I84V/L90M fold change ([2]; mutant I84V/L90M vs wild type) | further results
1 | COc1ccc(S(=O)(=O)N(CC(C)C)CC(O)C(CNc2ccc(CP(=O)(O)O)cc2)NC(=O)OC2COC3OCCC23)cc1 (centres unmarked) | 500 to 5000 nM | – | I84V/L90M fold change [2, 5]: + (>3 to ≦10)
2 | CC(C)CN(CC(O)C(Cc1ccc(OCP(=O)(O)O)cc1)NC(=O)OC1COC2OCCC12)S(=O)(=O)c1ccc(N)cc1 (centres unmarked) | > 5000 nM | − (≦3) | –
3 | COc1ccc(S(=O)(=O)N(CC(C)C)C[C@@H](O)[C@H](Cc2ccc(OCP(=O)(OCc3ccccc3)OCc3ccccc3)cc2)NC(=O)OC2CCOC2)cc1 (some centres unmarked) [OMe, OBn] | – | + + | EC50 (nM) [1]: + + +
4 | CC(C)CN(CC(O)C(Cc1ccc(O)cc1)NC(=O)OC1COC2OCCC12)S(=O)(=O)c1cccc(N)c1 (centres unmarked) [OH, m-NH2] | – | − (≦3) | EC50 (nM) [1]: + +
5 | COc1ccc(S(=O)(=O)N(CC(C)C)CC(O)C(Cc2ccc(OCP(=O)(NC(C)C(=O)OC(C)C)Oc3ccccc3)cc2)NC(=O)OC2COC3OCCC23)cc1 (centres unmarked) [drawing 614 R1=OPh R2=Ala-iPr] | < 50 nM | – | Ki ([3]; Ki, class symbols, Table 10): < 0.01 nM and 0.01 to 0.1 nM
6 | COc1ccc(S(=O)(=O)N(CC(C)C)CC(O)C(Cc2ccc(OCP(=O)(O)OC(C)C(=O)O)cc2)NC(=O)OC2COC3OCCC23)cc1 (centres unmarked) [drawing 615 R1=OH R2=Lac-OH] | 500 to 5000 nM | – | I84V/L90M fold change [2, 5]: − (≦3)
7 | CCOC(=O)C(NP(=O)(COc1ccc(CC(NC(=O)OC2COC3OCCC23)C(O)CN(CC(C)C)S(=O)(=O)c2ccc(OC)cc2)cc1)NC(C(=O)OCC)C(C)C)C(C)C (centres unmarked) [drawing 612 R1=Val-Et R2=Val-Et] | < 50 nM | – | I84V/L90M fold change [2, 5]: − (≦3)
8 | CCOP(=O)(COc1ccc(S(=O)(=O)N(CC(C)C)CC(O)C(Cc2ccc(N)cc2)NC(=O)OC2COC3OCCC23)cc1)OCC (centres unmarked) [NH2, OEt] | – | ++ (>10 to ≦30) | EC50 ([1]; read-out: EC50): 50 to 500 nM
9 | CCOP(=O)(COc1ccc(S(=O)(=O)N(CC(C)C)CC(O)C(Cc2ccc(N(C)C)cc2)NC(=O)OC2COC3OCCC23)cc1)OCC (centres unmarked) [NMe2, OEt] | – | ++ (>10 to ≦30) | EC50 ([1]; read-out: EC50): < 50 nM
10 | CC(C)CN(CC(O)C(Cc1ccccc1)NC(=O)OC1COC2OCCC12)S(=O)(=O)c1ccc(OCP(=O)(O)Oc2ccccc2)cc1 (centres unmarked) | > 5000 nM | – | Ki (pM) [3]: + +
11 | Cc1ccc(C(=O)N[C@@H](Cc2ccc(OCP(=O)(OCc3ccccc3)OCc3ccccc3)cc2)[C@H](O)CN(CC(C)C)S(=O)(=O)c2ccc(N)cc2)cc1O | – | – | Ki (pM) [3]: + +
12 | CCOP(=O)(CON=Cc1ccc(CC(NC(=O)OC2COC3OCCC23)C(O)CN(CC(C)C)S(=O)(=O)c2ccc(OC)cc2)cc1)OCC (centres unmarked) [drawing 621 R1=Et R2=Et] | – | – | EC50 [1]: + + +; I84V/L90M fold change [2, 5]: − (≦3)
13 | CC(C)CN(CC(O)C(Cc1ccc(O)cc1)NC(=O)OC1COC2OCCC12)S(=O)(=O)c1ccc(N)cc1 (centres unmarked) [OH, p-NH2] | – | − (≦3) | EC50 (nM) [1]: + +
14 | CCCCOC(=O)C(C)OP(=O)(COc1ccc(CC(NC(=O)OC2COC3OCCC23)C(O)CN(CC(C)C)S(=O)(=O)c2cccc(N)c2)cc1)Oc1ccccc1 (centres unmarked) [drawing 720] | – | – | Ki (pM) [3]: + +
15 | COc1ccc(S(=O)(=O)N(CC(C)C)C[C@@H](O)[C@H](Cc2ccc(OCP(=O)(O)O)cc2)NC(=O)OC2CCOC2)cc1 (some centres unmarked) [OMe, OH] | – | + + + | EC50 ([1]; read-out: EC50): > 5000 nM
16 | Cc1ccc(C(=O)NC(Cc2ccc(OCP(=O)(O)O)cc2)C(O)CN(CC(C)C)S(=O)(=O)c2ccc(N)cc2)cc1O (centres unmarked) | > 5000 nM | + (>3 to ≦10) | –
17 | COc1ccc(S(=O)(=O)N(CC(C)C)CC(O)C(Cc2ccc(OCP(=O)(OC)Oc3ccccc3)cc2)NC(=O)OC2COC3OCCC23)cc1 (centres unmarked) [drawing 608 R1=OMe R2=OPh] | < 50 nM | – | Ki ([3]; Ki, class symbols, Table 10): 0.01 to 0.1 nM
18 | CCOC(=O)C(C)OP(=O)(COc1ccc(CC(NC(=O)OC2COC3OCCC23)C(O)CN(CC(C)C)S(=O)(=O)c2ccc(OC)cc2)cc1)OC(C)C(=O)OCC (centres unmarked) [drawing 613 R1=Lac-Et R2=Lac-Et] | 50 to 500 nM | – | I84V/L90M fold change [2, 5]: − (≦3)
19 | CCOP(=O)(CCN1CCN(CC(NC(=O)OC2COC3OCCC23)C(O)CN(CC(C)C)S(=O)(=O)c2ccc(OC)cc2)CC1)OCC (centres unmarked) | – | – | Ki [3]: + +
20 | CCOP(=O)(COc1ccc(CC(NC(=O)OC2COC3OCCC23)C(O)CN(CC(C)C)S(=O)(=O)c2ccc(N)cc2)cc1)OCC (centres unmarked) | – | − (≦3) | –
21 | COc1ccc(S(=O)(=O)N(CC(C)C)CC(O)C(Cc2ccc(OCP(=O)(O)Oc3ccccc3)cc2)NC(=O)OC2COC3OCCC23)cc1 (centres unmarked) [drawing 608 R1=OH R2=OPh] | > 5000 nM | – | Ki ([3]; Ki, class symbols, Table 10): < 0.01 nM
22 | COc1ccc(S(=O)(=O)N(CC(C)C)CC(O)C(Cc2ccc(OCc3ccccc3)cc2)NC(=O)OC2COC3OCCC23)cc1 (centres unmarked) | – | − (≦3) | –
23 | CCOC(=O)C(C)OP(=O)(CN1CC=C(CC(NC(=O)OC2COC3OCCC23)C(O)CN(CC(C)C)S(=O)(=O)c2ccc(OC)cc2)CC1)Oc1ccccc1 (centres unmarked) | – | − (≦3) | EC50 (nM) [1]: + + +
24 | CC(C)CN(CC(O)C(Cc1ccc(OCP(=O)(OCc2ccccc2)OCc2ccccc2)cc1)NC(=O)OC1COC2OCCC12)S(=O)(=O)c1ccc(C#N)cc1 (centres unmarked) | – | − (≦3) | –
25 | CCCCOC(=O)C(CC(C)C)NP(=O)(COc1ccc(CC(NC(=O)OC2COC3OCCC23)C(O)CN(CC(C)C)S(=O)(=O)c2ccc(OC)cc2)cc1)NC(CC(C)C)C(=O)OCCCC (centres unmarked) [drawing 612 R1=Leu-Bu R2=Leu-Bu] | 50 to 500 nM | – | I84V/L90M fold change [2, 5]: + (>3 to ≦10)

Row | Structure (SMILES) | EC50 [1, 4] | I84V/L90M fold change ([2]; mutant I84V/L90M vs wild type) | further results
26 | CCCCOC(=O)C(CC)NP(=O)(COc1ccc(CC(NC(=O)OC2COC3OCCC23)C(O)CN(CC(C)C)S(=O)(=O)c2ccc(OC)cc2)cc1)NC(CC)C(=O)OCCCC (centres unmarked) [drawing 612 R1=Aba-Bu R2=Aba-Bu] | < 50 nM | – | I84V/L90M fold change [2, 5]: + (>3 to ≦10)
27 | COc1ccc(S(=O)(=O)N(CCN2CCOCC2)CC(O)C(Cc2ccc(OCP(=O)(O)O)cc2)NC(=O)OC2COC3OCCC23)cc1 (centres unmarked) | > 5000 nM | + (>3 to ≦10) | –
28 | CCCCOC(=O)C(C)OP(=O)(COc1ccc(C[C@H](NC(=O)O[C@H]2CO[C@H]3OCC[C@H]32)[C@H](O)CN(CC(C)C)S(=O)(=O)c2cccc(N)c2)cc1)Oc1ccccc1 (some centres unmarked) | – | − (≦3) | EC50 (nM) [1]: + +
29 | CC(C)CN(CC(O)C(Cc1ccccc1)NC(=O)OC1COC2OCCC12)S(=O)(=O)c1ccc(OCP(=O)(O)O)cc1 (centres unmarked) | 500 to 5000 nM | − (≦3) | –
30 | CC(C)CN(CC(O)C(Cc1ccccc1)NC(=O)OC1COC2OCCC12)S(=O)(=O)c1cccc(OCP(=O)(O)O)c1 (centres unmarked) | – | + (>3 to ≦10) | –
31 | CC(C)CN(CC(O)C(Cc1ccc(OCP(=O)(OCc2ccccc2)OCc2ccccc2)cc1)NC(=O)OC1COC2OCCC12)S(=O)(=O)c1cccc(N)c1 (centres unmarked) | – | − (≦3) | –
32 | CCNc1ccc(S(=O)(=O)N(CC(C)C)CC(O)C(Cc2ccc(OCP(=O)(OCC)OCC)cc2)NC(=O)OC2COC3OCCC23)cc1 (centres unmarked) | – | − (≦3) | –
33 | COc1ccc(S(=O)(=O)N(CC(C)C)CC(O)C(Cc2ccc(NCP(=O)(NC(C)C(=O)OC(C)C)Oc3ccccc3)cc2)NC(=O)OC2COC3OCCC23)cc1 (centres unmarked) [drawing 660] | – | – | Ki ([3]; class symbols, Table 10): + +
34 | COc1ccc(S(=O)(=O)N(CC(C)C)CC(O)C(Cc2ccc(OCP(=O)(O)OC(C)C(=O)O)cc2)NC(=O)OC2COC3OCCC23)cc1 [drawing 615 R1=OH R2=(R)Lac-OH] | – | – | I84V/L90M fold change [2, 5]: − (≦3)
35 | CCOP(=O)(Cc1ccc(CN(C)CC(NC(=O)OC2COC3OCCC23)C(O)CN(CC(C)C)S(=O)(=O)c2ccc(OC)cc2)cc1)OCC (centres unmarked) | – | – | I84V/L90M fold change [2, 5]: − (≦3)
36 | CCNP(=O)(COc1ccc(CC(NC(=O)OC2COC3OCCC23)C(O)CN(CC(C)C)S(=O)(=O)c2ccc(OC)cc2)cc1)NCC (centres unmarked) [drawing 612 R1=NHEt R2=NHEt] | 50 to 500 nM | – | I84V/L90M fold change [2, 5]: − (≦3)
37 | COc1ccc(S(=O)(=O)N(CC(C)C)CC(O)C(Cc2ccc(OCP(=O)(OC(C)C(=O)OC(C)C)OC(C)C(=O)OC(C)C)cc2)NC(=O)OC2COC3OCCC23)cc1 (centres unmarked) [drawing 613 R1=Lac-iPr R2=Lac-iPr] | < 50 nM | – | I84V/L90M fold change [2, 5]: − (≦3)
38 | CC(C)CN(CC(O)C(Cc1ccc(OCP(=O)(O)O)cc1)NC(=O)OC1COC2OCCC12)S(=O)(=O)c1cccc(N)c1 (centres unmarked) | 500 to 5000 nM | − (≦3) | –
39 | CCOC(=O)C(C)NP(=O)(COc1ccc(CC(NC(=O)OC2COC3OCCC23)C(O)CN(CC(C)C)S(=O)(=O)c2ccc(OC)cc2)cc1)OCc1ccccc1 (centres unmarked) [Example 30e] | < 50 nM | – | I84V/L90M fold change [2, 5]: − (≦3)
40 | Cc1ccc(C(=O)NC(Cc2ccc(OCP(=O)(OCc3ccccc3)OCc3ccccc3)cc2)C(O)CN(CC(C)C)S(=O)(=O)c2ccc(N)cc2)cc1O (centres unmarked) | – | + (>3 to ≦10) | –
41 | CCOP(=O)(CCC1=CCN(CC(NC(=O)OC2COC3OCCC23)C(O)CN(CC(C)C)S(=O)(=O)c2ccc(OC)cc2)CC1)OCC (centres unmarked) | – | – | I84V/L90M fold change [2, 5]: + (>3 to ≦10)
42 | Cc1cccc(C)c1OCC(=O)NC(Cc1ccc(OCP(=O)(O)O)cc1)C(O)CN(CC(C)C)S(=O)(=O)c1ccc(N)cc1 (centres unmarked) | > 5000 nM | − (≦3) | –
43 | COc1ccc(S(=O)(=O)N(CC(C)C)CC(O)C(Cc2ccccc2)NC(=O)OC2COC3OCCC23)cc1OCP(=O)(O)O (centres unmarked) | – | − (≦3) | –
44 | COc1ccc(S(=O)(=O)N(CC(C)C)CC(O)C(Cc2ccccc2)NC(=O)OC2COC3OCCC23)cc1O (centres unmarked) | – | − (≦3) | –
45 | CC(C)CN(CC(O)C(Cc1ccccc1)NC(=O)OC1COC2OCCC12)S(=O)(=O)c1cccc(O)c1 (centres unmarked) | – | + (>3 to ≦10) | –
46 | COc1ccc(S(=O)(=O)N(CC(C)C)CC(O)C(Cc2ccc(NCP(=O)(NC(C)C(=O)OC(C)C)Oc3ccccc3)cc2)NC(=O)OC2COC3OCCC23)cc1 (centres unmarked) [drawing 661] | – | – | Ki ([3]; class symbols, Table 10): + +
47 | COc1ccc(S(=O)(=O)N(CC(C)C)CC(O)C(Cc2ccc(NCP(=O)(NC(C)C(=O)OC(C)C)Oc3ccccc3)cc2)NC(=O)OC2COC3OCCC23)cc1 (centres unmarked) [drawing 662] | – | – | Ki ([3]; class symbols, Table 10): + + +
48 | CCOP(=O)(COc1cc(S(=O)(=O)N(CC(C)C)CC(O)C(Cc2ccccc2)NC(=O)OC2COC3OCCC23)ccc1O)OCC (centres unmarked) | – | − (≦3) | –
49 | CC(C)CN(CC(O)C(Cc1ccc(OCP(=O)(OCc2ccccc2)OCc2ccccc2)cc1)NC(=O)OC1COC2OCCC12)S(=O)(=O)c1ccc(F)cc1 (centres unmarked) | – | + (>3 to ≦10) | –
